Reference: ChEMBL document CHEMBL1134024, “Synthesis and structure-activity studies of side-chain derivatized arylhydantoins for investigation as androgen receptor radioligands” (Bioorg Med Chem Lett, 2001)

Target: T1, Androgen receptor (Rattus norvegicus, UniProt P15207)
T1 sequence (P15207 whole entry): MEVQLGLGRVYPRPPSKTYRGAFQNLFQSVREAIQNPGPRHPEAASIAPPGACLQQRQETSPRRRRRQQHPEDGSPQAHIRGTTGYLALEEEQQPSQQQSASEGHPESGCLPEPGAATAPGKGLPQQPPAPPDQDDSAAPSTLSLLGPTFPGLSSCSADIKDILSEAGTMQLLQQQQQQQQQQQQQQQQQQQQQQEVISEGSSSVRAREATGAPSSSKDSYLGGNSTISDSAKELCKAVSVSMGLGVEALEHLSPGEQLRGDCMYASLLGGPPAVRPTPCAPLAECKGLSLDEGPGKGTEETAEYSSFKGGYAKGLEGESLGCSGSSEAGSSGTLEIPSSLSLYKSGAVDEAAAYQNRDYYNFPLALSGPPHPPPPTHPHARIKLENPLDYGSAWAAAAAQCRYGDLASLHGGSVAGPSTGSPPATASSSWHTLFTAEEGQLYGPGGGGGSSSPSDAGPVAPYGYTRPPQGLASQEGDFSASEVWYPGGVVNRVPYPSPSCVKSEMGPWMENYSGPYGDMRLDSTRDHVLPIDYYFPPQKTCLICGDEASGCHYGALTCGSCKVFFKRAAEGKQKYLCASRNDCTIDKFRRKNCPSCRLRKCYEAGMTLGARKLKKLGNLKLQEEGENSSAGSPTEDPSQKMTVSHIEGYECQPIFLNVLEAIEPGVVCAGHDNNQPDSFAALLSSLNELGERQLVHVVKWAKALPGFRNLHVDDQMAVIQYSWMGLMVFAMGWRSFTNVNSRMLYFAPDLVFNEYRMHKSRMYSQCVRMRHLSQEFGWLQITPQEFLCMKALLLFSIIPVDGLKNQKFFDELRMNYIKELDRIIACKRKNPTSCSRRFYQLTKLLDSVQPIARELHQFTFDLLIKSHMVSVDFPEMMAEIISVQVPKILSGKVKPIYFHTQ
Assay: Binding affinity against rat prostate cytosolic Androgen receptor using [3H]mibolerone as radioligand
Conditions: not given

CC1(C)C(=O)N(c2ccc(C#N)c(C(F)(F)F)c2)C(=O)N1CCCF was tested. Which Ki did it give?
The Ki was 321 nM.

For CC1(C)C(=O)N(c2ccc(C#N)c(C(F)(F)F)c2)C(=O)N1Cc1ccc(I)cc1, which Ki is on record?
Its Ki is 150 nM.

Which Ki does the source give for COCCN1C(=O)N(c2ccc(C#N)c(C(F)(F)F)c2)C(=O)C1(C)C here?
The Ki was 120 nM.

Which Ki does the source give for CC1(C)C(=O)N(c2ccc(C#N)c(C(F)(F)F)c2)C(=O)N1CCCc1ccc(I)cc1 here?
The Ki was 65 nM.

How did the Ki turn out when CC1(C)C(=O)N(c2ccc(C#N)c(C(F)(F)F)c2)C(=O)N1CCc1cccc(I)c1 was run?
The Ki was 809 nM.

Which Ki does the source give for CC1(C)C(=O)N(c2ccc(C#N)c(C(F)(F)F)c2)C(=O)N1Cc1cccc(I)c1 here?
Its Ki is 123 nM.

With CC1(C)C(=O)N(c2ccc(C#N)c(C(F)(F)F)c2)C(=O)N1C/C=C/I as the compound, how does the Ki read?
Its Ki is 13 nM.

Which Ki does the source give for CN1C(=O)N(c2ccc(C#N)c(C(F)(F)F)c2)C(=O)C1(C)C here?
The Ki was 37 nM.

How did the Ki turn out when CC1(C)C(=O)N(c2ccc(C#N)c(C(F)(F)F)c2)C(=O)N1CCF was run?
Its Ki is 141 nM.

For CC1(C)C(=O)N(c2ccc(C#N)c(C(F)(F)F)c2)C(=O)N1CCCCO [RU-58841], which Ki is on record?
The Ki was 26 nM.

CC1(C)C(=O)N(c2ccc(C#N)c(C(F)(F)F)c2)C(=O)N1CCCc1cccc(I)c1 was tested. Which Ki did it give?
The Ki was 360 nM.

CC1(C)C(=O)N(c2ccc(C#N)c(C(F)(F)F)c2)C(=O)N1CCc1ccc(I)cc1 was tested. Which Ki did it give?
The Ki was 415 nM.

Target: T2, Androgen receptor (Rattus norvegicus) (UniProt P15207)
T2 sequence (whole entry): T1 sequence (P15207 whole entry)
Conditions: Prostate gland
Description: Displacement of [3H]-mibolerone from rat prostate cytosolic Androgen receptor

Which Ka does the source give for CC1(C)C(=O)N(c2ccc(C#N)c(C(F)(F)F)c2)C(=O)N1CCCCO [RU-58841] here?
Its Ka is 1.2 nM.
